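Five compound concentrations were applied to cells in 96-well plates for 48 hours; endpoints were derived by simple linear interpolation of the resulting dose-response curve. The concentration for full growth arrest is given as TGI.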
Columns and labels:
Assay in all cases: NCI tumour cell line growth inhibition, 48 h
SF-295 CNS = system: SF-295 CNS
SF-539 CNS = system: SF-539 CNS
HT29 colon = system: HT29 colon
SNB-19 CNS = system: SNB-19 CNS
NCI-H522 lung = system: NCI-H522 lung
OVCAR-4 ovarian = system: OVCAR-4 ovarian
OVCAR-8 ovarian = system: OVCAR-8 ovarian
UACC-257 melanoma = system: UACC-257 melanoma
HS 578T breast = system: HS 578T breast
786-0 renal = system: 786-0 renal
SN12C renal = system: SN12C renal
SNB-75 CNS = system: SNB-75 CNS
U251 CNS = system: U251 CNS
NCI-H460 lung = system: NCI-H460 lung
HCC-2998 colon = system: HCC-2998 colon
BT-549 breast = system: BT-549 breast
CAKI-1 renal = system: CAKI-1 renal
SW-620 colon = system: SW-620 colon
UO-31 renal = system: UO-31 renal
SR leukemia = system: SR leukemia
M14 melanoma = system: M14 melanoma
IGROV1 ovarian = system: IGROV1 ovarian
NCI/ADR-RES ovarian = system: NCI/ADR-RES ovarian
RXF 393 renal = system: RXF 393 renal
COLO 205 colon = system: COLO 205 colon
SK-OV-3 ovarian = system: SK-OV-3 ovarian
MDA-MB-435 = system: MDA-MB-435
NCI-H226 lung = system: NCI-H226 lung
OVCAR-5 ovarian = system: OVCAR-5 ovarian
T-47D breast = system: T-47D breast
ACHN renal = system: ACHN renal
A498 renal = system: A498 renal
HCT-116 colon = system: HCT-116 colon
K-562 leukemia = system: K-562 leukemia
MDA-N = system: MDA-N
SK-MEL-5 melanoma = system: SK-MEL-5 melanoma
MDA-MB-231 breast = system: MDA-MB-231 breast
RPMI-8226 leukemia = system: RPMI-8226 leukemia
EKVX NSCLC = system: EKVX NSCLC
PC-3 prostate = system: PC-3 prostate
LOX IMVI melanoma = system: LOX IMVI melanoma
MOLT-4 leukemia = system: MOLT-4 leukemia
TK-10 renal = system: TK-10 renal
SK-MEL-2 melanoma = system: SK-MEL-2 melanoma
CCRF-CEM leukemia = system: CCRF-CEM leukemia
A549 NSCLC = system: A549 NSCLC
MCF7 breast = system: MCF7 breast
DU-145 prostate = system: DU-145 prostate
SK-MEL-28 melanoma = system: SK-MEL-28 melanoma
MALME-3M melanoma = system: MALME-3M melanoma
UACC-62 melanoma = system: UACC-62 melanoma
HCT-15 colon = system: HCT-15 colon
NCI-H23 lung = system: NCI-H23 lung
SF-268 CNS = system: SF-268 CNS
OVCAR-3 ovarian = system: OVCAR-3 ovarian
HOP-62 NSCLC = system: HOP-62 NSCLC
KM12 colon = system: KM12 colon
HOP-92 NSCLC = system: HOP-92 NSCLC
HL-60(TB) leukemia = system: HL-60(TB) leukemia

O=c1nc2n(CCO)c(-c3ccccc3)c(-c3ccccc3)nc-2c(=O)[nH]1
TGI (SF-295 CNS): > 100 µM | TGI (SF-539 CNS): > 100 µM | TGI (HT29 colon): > 100 µM | TGI (SNB-19 CNS): > 100 µM | TGI (NCI-H522 lung): > 100 µM | TGI (OVCAR-4 ovarian): > 100 µM | TGI (OVCAR-8 ovarian): > 100 µM | TGI (UACC-257 melanoma): > 100 µM | TGI (HS 578T breast): > 100 µM | TGI (786-0 renal): > 100 µM | TGI (SN12C renal): > 100 µM | TGI (SNB-75 CNS): > 100 µM | TGI (U251 CNS): > 100 µM | TGI (NCI-H460 lung): > 100 µM | TGI (HCC-2998 colon): > 100 µM | TGI (BT-549 breast): > 100 µM | TGI (CAKI-1 renal): > 100 µM | TGI (SW-620 colon): > 100 µM | TGI (UO-31 renal): > 100 µM | TGI (SR leukemia): > 100 µM | TGI (M14 melanoma): > 100 µM | TGI (IGROV1 ovarian): > 100 µM | TGI (NCI/ADR-RES ovarian): > 100 µM | TGI (RXF 393 renal): > 100 µM | TGI (COLO 205 colon): > 100 µM | TGI (SK-OV-3 ovarian): > 100 µM | TGI (MDA-MB-435): > 100 µM | TGI (NCI-H226 lung): > 100 µM | TGI (OVCAR-5 ovarian): > 100 µM | TGI (T-47D breast): > 100 µM | TGI (ACHN renal): > 100 µM | TGI (A498 renal): > 100 µM | TGI (HCT-116 colon): > 100 µM | TGI (K-562 leukemia): > 100 µM | TGI (MDA-N): > 100 µM | TGI (SK-MEL-5 melanoma): > 100 µM | TGI (MDA-MB-231 breast): > 100 µM | TGI (RPMI-8226 leukemia): > 100 µM | TGI (EKVX NSCLC): > 100 µM | TGI (PC-3 prostate): > 100 µM | TGI (LOX IMVI melanoma): > 100 µM | TGI (MOLT-4 leukemia): > 100 µM | TGI (TK-10 renal): > 100 µM | TGI (SK-MEL-2 melanoma): > 100 µM | TGI (CCRF-CEM leukemia): > 100 µM | TGI (A549 NSCLC): > 100 µM | TGI (MCF7 breast): > 100 µM | TGI (DU-145 prostate): > 100 µM | TGI (SK-MEL-28 melanoma): > 100 µM | TGI (MALME-3M melanoma): > 100 µM | TGI (UACC-62 melanoma): > 100 µM | TGI (HCT-15 colon): > 100 µM | TGI (NCI-H23 lung): > 100 µM | TGI (SF-268 CNS): > 100 µM | TGI (OVCAR-3 ovarian): > 100 µM | TGI (HOP-62 NSCLC): > 100 µM | TGI (KM12 colon): > 100 µM | TGI (HOP-92 NSCLC): > 100 µM

N#Cc1cnn2c1n[n+]([O-])c1ccc(Cl)cc12
TGI (SF-295 CNS): 29.6 µM | TGI (SF-539 CNS): 44.5 µM | TGI (HT29 colon): 21.7 µM | TGI (SNB-19 CNS): 10.1 µM | TGI (NCI-H522 lung): 3.81 µM | TGI (OVCAR-4 ovarian): 4.03 µM | TGI (OVCAR-8 ovarian): > 42.9 µM | TGI (UACC-257 melanoma): 23 µM | TGI (HS 578T breast): > 24.7 µM | TGI (786-0 renal): > 100 µM | TGI (SN12C renal): 20.7 µM | TGI (SNB-75 CNS): 15.4 µM | TGI (U251 CNS): 32.8 µM | TGI (NCI-H460 lung): 26.5 µM | TGI (HL-60(TB) leukemia): 6.52 µM | TGI (HCC-2998 colon): 3.46 µM | TGI (BT-549 breast): 25.4 µM | TGI (CAKI-1 renal): 2.53 µM | TGI (SW-620 colon): 29.6 µM | TGI (UO-31 renal): 21.7 µM | TGI (M14 melanoma): 31.8 µM | TGI (IGROV1 ovarian): 8.53 µM | TGI (NCI/ADR-RES ovarian): > 32.3 µM | TGI (RXF 393 renal): 42.4 µM | TGI (COLO 205 colon): 31.7 µM | TGI (SK-OV-3 ovarian): 23.8 µM | TGI (MDA-MB-435): 26.4 µM | TGI (NCI-H226 lung): 49.7 µM | TGI (OVCAR-5 ovarian): > 76.8 µM | TGI (T-47D breast): 37.6 µM | TGI (ACHN renal): 10.5 µM | TGI (A498 renal): 46 µM | TGI (HCT-116 colon): 22.7 µM | TGI (K-562 leukemia): 3.91 µM | TGI (MDA-N): 22.7 µM | TGI (SK-MEL-5 melanoma): 25 µM | TGI (MDA-MB-231 breast): 35.5 µM | TGI (RPMI-8226 leukemia): > 100 µM | TGI (EKVX NSCLC): 7.24 µM | TGI (PC-3 prostate): 32.1 µM | TGI (LOX IMVI melanoma): 8.51 µM | TGI (MOLT-4 leukemia): 17.6 µM | TGI (TK-10 renal): > 100 µM | TGI (SK-MEL-2 melanoma): 17.2 µM | TGI (CCRF-CEM leukemia): 4.34 µM | TGI (A549 NSCLC): > 79.8 µM | TGI (MCF7 breast): > 100 µM | TGI (DU-145 prostate): 28.5 µM | TGI (SK-MEL-28 melanoma): 27.7 µM | TGI (MALME-3M melanoma): 19.8 µM | TGI (UACC-62 melanoma): 9.09 µM | TGI (HCT-15 colon): 4.36 µM | TGI (NCI-H23 lung): 12.2 µM | TGI (SF-268 CNS): > 40.3 µM | TGI (OVCAR-3 ovarian): 9.08 µM | TGI (HOP-62 NSCLC): 38.6 µM | TGI (KM12 colon): > 100 µM | TGI (HOP-92 NSCLC): 5.21 µM

O=C(O)CCC(=O)Nc1ccc2c(c1)S(=O)(=O)N(CC(=O)O)C2=O
TGI (SF-295 CNS): > 100 µM | TGI (SF-539 CNS): > 100 µM | TGI (HT29 colon): > 100 µM | TGI (SNB-19 CNS): > 100 µM | TGI (NCI-H522 lung): > 100 µM | TGI (OVCAR-4 ovarian): > 100 µM | TGI (OVCAR-8 ovarian): > 100 µM | TGI (UACC-257 melanoma): > 100 µM | TGI (HS 578T breast): > 100 µM | TGI (786-0 renal): > 100 µM | TGI (SN12C renal): > 100 µM | TGI (U251 CNS): > 100 µM | TGI (NCI-H460 lung): > 100 µM | TGI (HL-60(TB) leukemia): > 100 µM | TGI (HCC-2998 colon): > 100 µM | TGI (BT-549 breast): > 100 µM | TGI (CAKI-1 renal): > 100 µM | TGI (SW-620 colon): > 100 µM | TGI (UO-31 renal): > 100 µM | TGI (SR leukemia): > 100 µM | TGI (M14 melanoma): > 100 µM | TGI (IGROV1 ovarian): > 100 µM | TGI (NCI/ADR-RES ovarian): > 100 µM | TGI (COLO 205 colon): > 100 µM | TGI (SK-OV-3 ovarian): > 100 µM | TGI (MDA-MB-435): > 100 µM | TGI (NCI-H226 lung): > 100 µM | TGI (OVCAR-5 ovarian): > 100 µM | TGI (T-47D breast): > 100 µM | TGI (ACHN renal): > 100 µM | TGI (A498 renal): > 100 µM | TGI (HCT-116 colon): > 100 µM | TGI (K-562 leukemia): > 100 µM | TGI (MDA-N): > 100 µM | TGI (SK-MEL-5 melanoma): > 100 µM | TGI (MDA-MB-231 breast): > 100 µM | TGI (RPMI-8226 leukemia): > 100 µM | TGI (EKVX NSCLC): > 100 µM | TGI (PC-3 prostate): > 100 µM | TGI (LOX IMVI melanoma): > 100 µM | TGI (MOLT-4 leukemia): > 100 µM | TGI (TK-10 renal): > 100 µM | TGI (SK-MEL-2 melanoma): > 100 µM | TGI (CCRF-CEM leukemia): > 100 µM | TGI (A549 NSCLC): > 100 µM | TGI (MCF7 breast): > 100 µM | TGI (DU-145 prostate): > 100 µM | TGI (SK-MEL-28 melanoma): > 100 µM | TGI (MALME-3M melanoma): > 100 µM | TGI (UACC-62 melanoma): > 100 µM | TGI (HCT-15 colon): > 100 µM | TGI (NCI-H23 lung): > 100 µM | TGI (OVCAR-3 ovarian): > 100 µM | TGI (HOP-62 NSCLC): > 100 µM | TGI (KM12 colon): > 100 µM | TGI (HOP-92 NSCLC): > 100 µM
